pIC50: −log10 of the molar value. Activity calls are given as the source filed them. The calls are words filed in the database; no cut-off is given here.
What follows are compounds tested against T1, Thymidine kinase (Human alphaherpesvirus 1) (UniProt Q9QNF7) (assay: Activity of HSV-1 GST-TK assessed as formation of compound-monophosphate by HPLC analysis). Settings: not given.
T1 sequence (whole entry): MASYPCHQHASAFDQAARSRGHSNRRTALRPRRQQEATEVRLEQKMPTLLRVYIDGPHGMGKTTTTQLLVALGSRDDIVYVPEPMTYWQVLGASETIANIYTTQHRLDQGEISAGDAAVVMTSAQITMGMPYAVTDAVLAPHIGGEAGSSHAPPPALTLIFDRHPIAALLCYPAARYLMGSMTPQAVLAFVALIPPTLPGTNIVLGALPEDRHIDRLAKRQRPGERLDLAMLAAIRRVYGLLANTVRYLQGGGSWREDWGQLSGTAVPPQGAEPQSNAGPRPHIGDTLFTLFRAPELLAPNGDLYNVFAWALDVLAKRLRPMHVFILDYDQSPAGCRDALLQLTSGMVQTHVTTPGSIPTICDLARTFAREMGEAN

Row | SMILES | Activity
1 | Cc1c(C=C(CO)CO)n(C)c(=O)[nH]c1=O | Active

The compounds below were run against T1, Thymidine kinase (Human alphaherpesvirus 1) (assay: Activity of HSV-1 GST-TK assessed as formation of ADP by HPLC analysis). Settings: not given.

Row | SMILES | Activity
2 | Cc1c(C=C(CO)CO)n(C)c(=O)[nH]c1=O | Active

What follows are compounds tested against T2, Thymidine kinase, cytosolic (Homo sapiens) (UniProt P04183) (assay: Activity of human 6xHis-tagged TK assessed as formation of compound-monophosphate by HPLC analysis). Settings: not given.
T2 sequence (whole entry): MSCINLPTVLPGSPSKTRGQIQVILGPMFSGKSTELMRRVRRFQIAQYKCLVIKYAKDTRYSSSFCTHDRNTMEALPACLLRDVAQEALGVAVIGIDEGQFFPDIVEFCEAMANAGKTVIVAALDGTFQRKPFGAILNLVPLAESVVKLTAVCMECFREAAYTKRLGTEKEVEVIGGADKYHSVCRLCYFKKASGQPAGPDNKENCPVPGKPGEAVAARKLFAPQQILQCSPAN

Row | SMILES | Activity
3 | Cc1c(C=C(CO)CO)n(C)c(=O)[nH]c1=O | inactive

The compounds below were run against T2, Thymidine kinase, cytosolic (Homo sapiens) (assay: Activity of human 6xHis-tagged TK assessed as formation of ADP by HPLC analysis). Settings: not given.

Row | SMILES | Activity
4 | Cc1c(C=C(CO)CO)n(C)c(=O)[nH]c1=O | inactive

Each compound was assayed against T1, Thymidine kinase (Human alphaherpesvirus 1) (assay: Activity of HSV-1 GST-TK assessed as increase in ADP to ATP ratio at 1 mM after 30 mins). Settings: not given.

Row | SMILES | Activity
5 | Cc1c(C=C(CO)CO)n(C)c(=O)[nH]c1=O | Active

These compounds were tested against T2, Thymidine kinase, cytosolic (Homo sapiens) (assay: Activity of human 6xHis-tagged TK assessed as effect on ADP to ATP ratio at 1 mM after 30 mins). Settings: not given.

Row | SMILES | Activity
6 | Cc1c(C=C(CO)CO)n(C)c(=O)[nH]c1=O | inactive

What follows are compounds tested on HeLa (assay: Antiproliferative activity against human HeLa cells after 72 hrs by MTT assay). Settings: not given.
Format: functional, cell-based

Row | SMILES | pIC50
7 | Cc1c(C=C(CO)CO)n(C)c(=O)[nH]c1=O | < 4.00
8 | CC(=O)OCC(O)(COC(C)=O)Cc1c(C)c(=O)[nH]c(=O)n1C | < 4.00
9 | COc1nc(=O)n(C)c(CC(O)(CO)CO)c1C | < 4.00
10 | COc1nc(=O)n(C)c(CC(O)(COCc2ccccc2)COCc2ccccc2)c1C | 4.53
11 | COc1nc(=O)n(C)c(CC(O)(COC(C)=O)COC(C)=O)c1C | < 4.00
12 | COc1nc(=O)n(C)c(CC(F)(COC(C)=O)COC(C)=O)c1C | < 4.00
13 | COc1nc(CC(O)(COC(C)=O)COC(C)=O)c(C)c(OC)n1 | < 4.00
14 | COc1nc(CC(O)(COCc2ccccc2)COCc2ccccc2)c(C)c(OC)n1 | 5.44
15 | CC(=O)OCC(F)(COC(C)=O)Cc1c(C)c(=O)[nH]c(=O)n1C | < 4.00
16 | CC(=O)OCC(=Cc1c(C)c(=O)[nH]c(=O)n1C)COC(C)=O | < 4.00
17 | COc1nc(CC(F)(COC(C)=O)COC(C)=O)c(C)c(OC)n1 | < 4.00
18 | Cc1c(CC(O)(CO)CO)n(C)c(=O)[nH]c1=O | < 4.00
19 | COc1nc(CC(O)(CO)CO)c(C)c(OC)n1 | < 4.00

Each compound was assayed on MCF7 (assay: Antiproliferative activity against human MCF7 cells after 72 hrs by MTT assay). Settings: MCF7, 72 h.
Format: functional, cell-based

Row | SMILES | pIC50
20 | Cc1c(C=C(CO)CO)n(C)c(=O)[nH]c1=O | < 4.00
21 | CC(=O)OCC(O)(COC(C)=O)Cc1c(C)c(=O)[nH]c(=O)n1C | < 4.00
22 | COc1nc(=O)n(C)c(CC(O)(CO)CO)c1C | < 4.00
23 | COc1nc(=O)n(C)c(CC(O)(COCc2ccccc2)COCc2ccccc2)c1C | 4.62
24 | COc1nc(=O)n(C)c(CC(O)(COC(C)=O)COC(C)=O)c1C | < 4.00
25 | COc1nc(=O)n(C)c(CC(F)(COC(C)=O)COC(C)=O)c1C | < 4.00
26 | COc1nc(CC(O)(COC(C)=O)COC(C)=O)c(C)c(OC)n1 | < 4.00
27 | COc1nc(CC(O)(COCc2ccccc2)COCc2ccccc2)c(C)c(OC)n1 | 5.37
28 | CC(=O)OCC(F)(COC(C)=O)Cc1c(C)c(=O)[nH]c(=O)n1C | < 4.00
29 | CC(=O)OCC(=Cc1c(C)c(=O)[nH]c(=O)n1C)COC(C)=O | < 4.00
30 | COc1nc(CC(F)(COC(C)=O)COC(C)=O)c(C)c(OC)n1 | < 4.00
31 | Cc1c(CC(O)(CO)CO)n(C)c(=O)[nH]c1=O | < 4.00
32 | COc1nc(CC(O)(CO)CO)c(C)c(OC)n1 | < 4.00

Each compound was assayed on HepG2 (assay: Antiproliferative activity against human HepG2 cells after 72 hrs by MTT assay). Settings: HepG2, 72 h.
Format: functional, cell-based

Row | SMILES | pIC50
33 | Cc1c(C=C(CO)CO)n(C)c(=O)[nH]c1=O | < 4.00
34 | CC(=O)OCC(O)(COC(C)=O)Cc1c(C)c(=O)[nH]c(=O)n1C | < 4.00
35 | COc1nc(=O)n(C)c(CC(O)(CO)CO)c1C | < 4.00
36 | COc1nc(=O)n(C)c(CC(O)(COCc2ccccc2)COCc2ccccc2)c1C | 4.47
37 | COc1nc(=O)n(C)c(CC(O)(COC(C)=O)COC(C)=O)c1C | < 4.00
38 | COc1nc(=O)n(C)c(CC(F)(COC(C)=O)COC(C)=O)c1C | < 4.00
39 | COc1nc(CC(O)(COC(C)=O)COC(C)=O)c(C)c(OC)n1 | < 4.00
40 | COc1nc(CC(O)(COCc2ccccc2)COCc2ccccc2)c(C)c(OC)n1 | 5.62
41 | CC(=O)OCC(F)(COC(C)=O)Cc1c(C)c(=O)[nH]c(=O)n1C | < 4.00
42 | CC(=O)OCC(=Cc1c(C)c(=O)[nH]c(=O)n1C)COC(C)=O | < 4.00
43 | COc1nc(CC(F)(COC(C)=O)COC(C)=O)c(C)c(OC)n1 | < 4.00
44 | Cc1c(CC(O)(CO)CO)n(C)c(=O)[nH]c1=O | < 4.00
45 | COc1nc(CC(O)(CO)CO)c(C)c(OC)n1 | < 4.00

These compounds were tested on SW-620 (assay: Antiproliferative activity against human SW620 cells after 72 hrs by MTT assay). Settings: SW-620, 72 h.
Format: functional, cell-based

Row | SMILES | pIC50
46 | Cc1c(C=C(CO)CO)n(C)c(=O)[nH]c1=O | < 4.00
47 | CC(=O)OCC(O)(COC(C)=O)Cc1c(C)c(=O)[nH]c(=O)n1C | < 4.00
48 | COc1nc(=O)n(C)c(CC(O)(CO)CO)c1C | < 4.00
49 | COc1nc(=O)n(C)c(CC(O)(COCc2ccccc2)COCc2ccccc2)c1C | 4.24
50 | COc1nc(=O)n(C)c(CC(O)(COC(C)=O)COC(C)=O)c1C | < 4.00
51 | COc1nc(=O)n(C)c(CC(F)(COC(C)=O)COC(C)=O)c1C | < 4.00
52 | COc1nc(CC(O)(COC(C)=O)COC(C)=O)c(C)c(OC)n1 | < 4.00
53 | COc1nc(CC(O)(COCc2ccccc2)COCc2ccccc2)c(C)c(OC)n1 | 5.46
54 | CC(=O)OCC(F)(COC(C)=O)Cc1c(C)c(=O)[nH]c(=O)n1C | < 4.00
55 | CC(=O)OCC(=Cc1c(C)c(=O)[nH]c(=O)n1C)COC(C)=O | < 4.00
56 | COc1nc(CC(F)(COC(C)=O)COC(C)=O)c(C)c(OC)n1 | < 4.00
57 | Cc1c(CC(O)(CO)CO)n(C)c(=O)[nH]c1=O | < 4.00
58 | COc1nc(CC(O)(CO)CO)c(C)c(OC)n1 | < 4.00

Each compound was assayed on MIA PaCa-2 (assay: Antiproliferative activity against human MIAPaCa2 cells after 72 hrs by MTT assay). Settings: MIA PaCa-2, 72 h.
Format: functional, cell-based

Row | SMILES | pIC50
59 | Cc1c(C=C(CO)CO)n(C)c(=O)[nH]c1=O | < 4.00
60 | CC(=O)OCC(O)(COC(C)=O)Cc1c(C)c(=O)[nH]c(=O)n1C | < 4.00
61 | COc1nc(=O)n(C)c(CC(O)(CO)CO)c1C | < 4.00
62 | COc1nc(=O)n(C)c(CC(O)(COCc2ccccc2)COCc2ccccc2)c1C | 4.47
63 | COc1nc(=O)n(C)c(CC(O)(COC(C)=O)COC(C)=O)c1C | < 4.00
64 | COc1nc(=O)n(C)c(CC(F)(COC(C)=O)COC(C)=O)c1C | < 4.00
65 | COc1nc(CC(O)(COC(C)=O)COC(C)=O)c(C)c(OC)n1 | < 4.00
66 | COc1nc(CC(O)(COCc2ccccc2)COCc2ccccc2)c(C)c(OC)n1 | 5.22
67 | CC(=O)OCC(F)(COC(C)=O)Cc1c(C)c(=O)[nH]c(=O)n1C | < 4.00
68 | CC(=O)OCC(=Cc1c(C)c(=O)[nH]c(=O)n1C)COC(C)=O | < 4.00
69 | COc1nc(CC(F)(COC(C)=O)COC(C)=O)c(C)c(OC)n1 | < 4.00
70 | Cc1c(CC(O)(CO)CO)n(C)c(=O)[nH]c1=O | < 4.00
71 | COc1nc(CC(O)(CO)CO)c(C)c(OC)n1 | < 4.00

The compounds below were run on WI-38 (assay: Antiproliferative activity against human WI38 cells after 72 hrs by MTT assay). Settings: WI-38, 72 h.
Format: cell-based

Row | SMILES | pIC50
72 | Cc1c(C=C(CO)CO)n(C)c(=O)[nH]c1=O | < 4.00
73 | CC(=O)OCC(O)(COC(C)=O)Cc1c(C)c(=O)[nH]c(=O)n1C | < 4.00
74 | COc1nc(=O)n(C)c(CC(O)(CO)CO)c1C | < 4.00
75 | COc1nc(=O)n(C)c(CC(O)(COCc2ccccc2)COCc2ccccc2)c1C | 4.30
76 | COc1nc(=O)n(C)c(CC(O)(COC(C)=O)COC(C)=O)c1C | < 4.00
77 | COc1nc(=O)n(C)c(CC(F)(COC(C)=O)COC(C)=O)c1C | < 4.00
78 | COc1nc(CC(O)(COC(C)=O)COC(C)=O)c(C)c(OC)n1 | < 4.00
79 | COc1nc(CC(O)(COCc2ccccc2)COCc2ccccc2)c(C)c(OC)n1 | 5.42
80 | CC(=O)OCC(F)(COC(C)=O)Cc1c(C)c(=O)[nH]c(=O)n1C | < 4.00
81 | CC(=O)OCC(=Cc1c(C)c(=O)[nH]c(=O)n1C)COC(C)=O | < 4.00
82 | COc1nc(CC(F)(COC(C)=O)COC(C)=O)c(C)c(OC)n1 | < 4.00
83 | Cc1c(CC(O)(CO)CO)n(C)c(=O)[nH]c1=O | < 4.00
84 | COc1nc(CC(O)(CO)CO)c(C)c(OC)n1 | < 4.00

Reference: ChEMBL document CHEMBL1833965, “A new N-methyl thymine derivative comprising a dihydroxyisobutenyl unit as ligand for thymidine kinase of herpes simplex virus type 1 (HSV-1 TK)” (Bioorg Med Chem Lett, 2011)
